Test results: patent USRE39591E1, “6-O-substituted ketolides having antibacterial activity” (Abbott Laboratories, priority 1996, dated 2007)

System: up to 32 different microorganisms
Experiment: in vitro antibacterial activity (MIC), agar dilution on Brain Heart Infusion (BHI) agar with Steers replicator
Assay type: cell-based
Conditions: unit assumed
Outline: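 Erythromycin A served as the same-class reference for test-to-test comparability. Test compound was tested over twelve successive dilutions in BHI agar; plates were incubated 20 to 24 hours at 35°-37° C, with MIC taken as the lowest concentration showing no growth, slight haze, or sparse colonies.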

## CCC1OC(=O)C(C)C(=O)C(C)C(OC2OC(C)CC(N(C)C)C2O)C(C)(OCC=Cc2ccc(-n3cccc3)cc2)CC(C)C(=O)C(C)C2NC(=O)OC12C (stereo not drawn) [Example 282, Compound of Formula (IX): L is CO, T is NH2, R is —CH2CH═CH-(4-pyrrolylphenyl)]
Organism code AA
  MIC: 0.2 µg/mL
Organism code BB
  MIC: 0.1 µg/mL
Organism code CC
  MIC: 100 µg/mL
Organism code DD
  MIC: 0.2 µg/mL
Organism code EE
  MIC: 0.2 µg/mL
Organism code FF
  MIC: 0.1 µg/mL
Organism code GG
  MIC: 100 µg/mL
Organism code HH
  MIC: 0.2 µg/mL
Organism code II
  MIC: 0.05 µg/mL
Organism code JJ
  MIC: 0.01 µg/mL
Organism code KK
  MIC: ≤ 0.005 µg/mL
Organism code LL
  MIC: ≤ 0.005 µg/mL
Organism code MM
  MIC: 25 µg/mL
Organism code NN
  MIC: 0.1 µg/mL
Organism code OO
  MIC: 0.05 µg/mL
Organism code PP
  MIC: 0.2 µg/mL
Organism code QQ
  MIC: > 100 µg/mL
Organism code RR
  MIC: 0.78 µg/mL
Organism code SS
  MIC: > 100 µg/mL
Organism code TT
  MIC: > 100 µg/mL
Organism code UU
  MIC: 1.56 µg/mL
Organism code VV
  MIC: 0.2 µg/mL
Organism code WW
  MIC: 8 µg/mL
Organism code XX
  MIC: 0.03 µg/mL
Organism code YY
  MIC: 0.03 µg/mL
Organism code ZZ
  MIC: 36 µg/mL
Organism code ZZA
  MIC: 0.25 µg/mL

## CCC1OC(=O)C(C)C(=O)C(C)C(OC2OC(C)CC(N(C)C)C2O)C(C)(OCC=Cc2ccc3cc(OC)ccc3c2)CC(C)C(=O)C(C)C2NC(=O)OC12C (stereo not drawn) [Example 283, Compound of Formula (IX): L is CO, T is NH2, R is —CH2CH═CH-(6-methoxy-2-naphthyl)]
Organism code AA
  MIC: 0.1 µg/mL
Organism code BB
  MIC: 0.1 µg/mL
Organism code CC
  MIC: 100 µg/mL
Organism code DD
  MIC: 0.1 µg/mL
Organism code EE
  MIC: 0.1 µg/mL
Organism code FF
  MIC: 0.1 µg/mL
Organism code GG
  MIC: 50 µg/mL
Organism code HH
  MIC: 0.2 µg/mL
Organism code II
  MIC: 0.05 µg/mL
Organism code JJ
  MIC: 0.01 µg/mL
Organism code KK
  MIC: 0.02 µg/mL
Organism code LL
  MIC: ≤ 0.005 µg/mL
Organism code MM
  MIC: 3.1 µg/mL
Organism code NN
  MIC: 0.2 µg/mL
Organism code OO
  MIC: 0.01 µg/mL
Organism code PP
  MIC: 0.2 µg/mL
Organism code QQ
  MIC: > 100 µg/mL
Organism code RR
  MIC: 0.78 µg/mL
Organism code SS
  MIC: > 100 µg/mL
Organism code TT
  MIC: > 100 µg/mL
Organism code UU
  MIC: 0.39 µg/mL
Organism code VV
  MIC: 0.2 µg/mL
Organism code WW
  MIC: 2 µg/mL
Organism code XX
  MIC: ≤ 0.004 µg/mL
Organism code YY
  MIC: ≤ 0.004 µg/mL
Organism code ZZ
  MIC: 4 µg/mL
Organism code ZZA
  MIC: 0.125 µg/mL

## CCC1OC(=O)C(C)C(=O)C(C)C(OC2OC(C)CC(N(C)C)C2O)C(C)(OCC=Cc2cc(Cl)cc(Cl)c2)CC(C)C(=O)C(C)C2NC(=O)OC12C (stereo not drawn) [Example 284, Compound of Formula (IX): L is CO, T is NH2, R is —CH2CH═CH-(3,5-dichlorophenyl)]
Organism code AA
  MIC: 0.2 µg/mL
Organism code BB
  MIC: 0.2 µg/mL
Organism code CC
  MIC: 50 µg/mL
Organism code DD
  MIC: 0.2 µg/mL
Organism code EE
  MIC: 0.2 µg/mL
Organism code FF
  MIC: 0.2 µg/mL
Organism code GG
  MIC: 50 µg/mL
Organism code HH
  MIC: 0.2 µg/mL
Organism code II
  MIC: 0.05 µg/mL
Organism code JJ
  MIC: 0.02 µg/mL
Organism code KK
  MIC: 0.02 µg/mL
Organism code LL
  MIC: ≤ 0.005 µg/mL
Organism code MM
  MIC: 25 µg/mL
Organism code NN
  MIC: 0.2 µg/mL
Organism code OO
  MIC: 0.05 µg/mL
Organism code PP
  MIC: 0.2 µg/mL
Organism code QQ
  MIC: > 100 µg/mL
Organism code RR
  MIC: 1.56 µg/mL
Organism code SS
  MIC: > 100 µg/mL
Organism code TT
  MIC: 50 µg/mL
Organism code UU
  MIC: 0.2 µg/mL
Organism code VV
  MIC: 0.78 µg/mL
Organism code WW
  MIC: 4 µg/mL
Organism code XX
  MIC: 0.03 µg/mL
Organism code YY
  MIC: 0.03 µg/mL
Organism code ZZ
  MIC: 32 µg/mL
Organism code ZZA
  MIC: 0.25 µg/mL

## CCC1OC(=O)C(C)C(=O)C(C)C(OC2OC(C)CC(N(C)C)C2O)C(C)(OCc2cccc(I)c2)CC(C)C(=O)C(C)C2NC(=O)OC12C (stereo not drawn) [Example 285, Compound of Formula (IX): L is CO, T is NH2, R is —CH2-(3-iodophenyl)]
Organism code AA
  MIC: 3.1 µg/mL
Organism code BB
  MIC: 3.1 µg/mL
Organism code CC
  MIC: > 100 µg/mL
Organism code DD
  MIC: 3.1 µg/mL
Organism code EE
  MIC: 3.1 µg/mL
Organism code FF
  MIC: 3.1 µg/mL
Organism code GG
  MIC: > 100 µg/mL
Organism code HH
  MIC: 3.1 µg/mL
Organism code II
  MIC: 0.39 µg/mL
Organism code JJ
  MIC: 0.2 µg/mL
Organism code KK
  MIC: 0.2 µg/mL
Organism code LL
  MIC: 0.05 µg/mL
Organism code MM
  MIC: 100 µg/mL
Organism code NN
  MIC: 0.78 µg/mL
Organism code OO
  MIC: 0.39 µg/mL
Organism code PP
  MIC: 0.39 µg/mL
Organism code QQ
  MIC: > 100 µg/mL
Organism code RR
  MIC: 12.5 µg/mL
Organism code SS
  MIC: > 100 µg/mL
Organism code TT
  MIC: > 100 µg/mL
Organism code UU
  MIC: 6.2 µg/mL
Organism code VV
  MIC: 1.56 µg/mL
Organism code WW
  MIC: > 128 µg/mL
Organism code XX
  MIC: 0.25 µg/mL
Organism code YY
  MIC: 0.25 µg/mL
Organism code ZZ
  MIC: 64 µg/mL
Organism code ZZA
  MIC: 1 µg/mL

## CCC1OC(=O)C(C)C(=O)C(C)C(OC2OC(C)CC(N(C)C)C2O)C(C)(OCC=Cc2ccc3cc(O)ccc3c2)CC(C)C(=O)C(C)C2NC(=O)OC12C (stereo not drawn) [Example 287, Compound of Formula (IX): L is CO, T is NH2, R is —CH2CH═CH-(6-hydroxy-2-naphthyl)]
Organism code AA
  MIC: 0.1 µg/mL
Organism code BB
  MIC: 0.1 µg/mL
Organism code CC
  MIC: > 100 µg/mL
Organism code DD
  MIC: 0.1 µg/mL
Organism code EE
  MIC: 0.1 µg/mL
Organism code FF
  MIC: 0.02 µg/mL
Organism code GG
  MIC: > 100 µg/mL
Organism code HH
  MIC: 0.1 µg/mL
Organism code II
  MIC: 0.05 µg/mL
Organism code JJ
  MIC: 0.02 µg/mL
Organism code KK
  MIC: 0.02 µg/mL
Organism code LL
  MIC: 0.02 µg/mL
Organism code MM
  MIC: 3.1 µg/mL
Organism code NN
  MIC: 0.1 µg/mL
Organism code OO
  MIC: 0.02 µg/mL
Organism code PP
  MIC: 0.2 µg/mL
Organism code QQ
  MIC: 50 µg/mL
Organism code RR
  MIC: 0.39 µg/mL
Organism code SS
  MIC: > 100 µg/mL
Organism code TT
  MIC: > 100 µg/mL
Organism code UU
  MIC: 0.39 µg/mL
Organism code VV
  MIC: 0.05 µg/mL
Organism code WW
  MIC: 2 µg/mL
Organism code XX
  MIC: 0.03 µg/mL
Organism code YY
  MIC: 0.03 µg/mL
Organism code ZZ
  MIC: 4 µg/mL
Organism code ZZA
  MIC: 0.5 µg/mL

## CCC1OC(=O)C(C)C(=O)C(C)C(OC2OC(C)CC(N(C)C)C2O)C(C)(OCC=Cc2ccc3cc(OCCBr)ccc3c2)CC(C)C(=O)C(C)C2NC(=O)OC12C (stereo not drawn) [Example 288, Compound of Formula (IX): L is CO, T is NH2, R is —CH2CH═CH-(6-(2-bromoethoxy)-2-naphthyl)]
Organism code AA
  MIC: 0.1 µg/mL
Organism code BB
  MIC: 0.2 µg/mL
Organism code CC
  MIC: > 100 µg/mL
Organism code DD
  MIC: 0.39 µg/mL
Organism code EE
  MIC: 0.39 µg/mL
Organism code FF
  MIC: 0.39 µg/mL
Organism code GG
  MIC: 100 µg/mL
Organism code HH
  MIC: 0.39 µg/mL
Organism code II
  MIC: 0.39 µg/mL
Organism code JJ
  MIC: 0.01 µg/mL
Organism code KK
  MIC: 0.02 µg/mL
Organism code LL
  MIC: 0.1 µg/mL
Organism code MM
  MIC: 12.5 µg/mL
Organism code NN
  MIC: 0.39 µg/mL
Organism code OO
  MIC: 0.02 µg/mL
Organism code PP
  MIC: 0.39 µg/mL
Organism code QQ
  MIC: > 100 µg/mL
Organism code RR
  MIC: 3.1 µg/mL
Organism code SS
  MIC: > 100 µg/mL
Organism code TT
  MIC: > 100 µg/mL
Organism code UU
  MIC: 0.39 µg/mL
Organism code VV
  MIC: 0.39 µg/mL
Organism code WW
  MIC: 8 µg/mL
Organism code XX
  MIC: 0.125 µg/mL
Organism code YY
  MIC: 0.125 µg/mL
Organism code ZZ
  MIC: 16 µg/mL
Organism code ZZA
  MIC: 1 µg/mL

## CCC1OC(=O)C(C)C(=O)C(C)C(OC2OC(C)CC(N(C)C)C2O)C(C)(OCC#CC=Cc2ccccc2)CC(C)C(=O)C(C)C2NC(=O)OC12C (stereo not drawn) [Example 291, Compound of Formula (IX): L is CO, T is NH, R is —CH2C≡C-(2-phenylethenyl)]
Organism code AA
  MIC: 0.05 µg/mL
Organism code BB
  MIC: 0.05 µg/mL
Organism code CC
  MIC: > 100 µg/mL
Organism code DD
  MIC: 0.05 µg/mL
Organism code EE
  MIC: 0.05 µg/mL
Organism code FF
  MIC: 0.05 µg/mL
Organism code GG
  MIC: > 100 µg/mL
Organism code HH
  MIC: 0.05 µg/mL
Organism code II
  MIC: 0.02 µg/mL
Organism code JJ
  MIC: ≤ 0.005 µg/mL
Organism code KK
  MIC: ≤ 0.005 µg/mL
Organism code LL
  MIC: ≤ 0.005 µg/mL
Organism code MM
  MIC: 3.1 µg/mL
Organism code NN
  MIC: 0.1 µg/mL
Organism code OO
  MIC: ≤ 0.005 µg/mL
Organism code PP
  MIC: 0.05 µg/mL
Organism code QQ
  MIC: 25 µg/mL
Organism code RR
  MIC: 0.1 µg/mL
Organism code SS
  MIC: 50 µg/mL
Organism code TT
  MIC: > 100 µg/mL
Organism code UU
  MIC: 0.39 µg/mL
Organism code VV
  MIC: 0.01 µg/mL
Organism code WW
  MIC: 2 µg/mL
Organism code XX
  MIC: ≤ 0.004 µg/mL
Organism code YY
  MIC: ≤ 0.004 µg/mL
Organism code ZZ
  MIC: 1 µg/mL
Organism code ZZA
  MIC: 0.125 µg/mL
